Data set [1] in a line: loading concentration of saturated active ingredient solution in penetration accelerator. The class given is physicochemical. The settings on record: for loading concentration in dimethyl isosorbide: dimethyl isosorbide as penetration accelerator; for loading concentration of saturated solution in DMEU: donor volume 150 μl. The protocol: The following test series with the various penetration accelerators and for the selected active ingredients were carried out in the context of a typical in vitro permeation using Franz diffusion cells. The used acceptor medium was replaced completely for a new one at predetermined replacement times, and the content of permeated active ingredient amount in these acceptor solutions was determined by means of HPLC.

For data set [2] the following is noted: in words; cited from earlier work.

Structures are written as SMILES.

Turning to `COc1cc(/C=C/C(=O)CC(=O)/C=C/c2ccc(O)c(OC)c2)ccc1O` [Curcumin], in data set [1], the “loading concentration in dimethyl isosorbide” value worked out at 1.29 mg/cm^2 and the “loading concentration of saturated solution in DMEU” value was 12.75 mg/cm^2. For the same compound, the water solubility result in data set [2] is “almost insoluble in water”.

For `CCOC(=O)C1=C(C)NC(C)=C(C(=O)OC)C1c1cccc(Cl)c1Cl` (stereo not drawn) [Felodipine], the water solubility entry in data set [2] is reported as “almost insoluble in water”.

On to `Cc1cc2c(s1)Nc1ccccc1N=C2N1CCN(C)CC1` [Olanzapine], for which, in data set [2], the water solubility entry is on record as “almost insoluble in water”.

As to `CC(=O)[C@H]1CC[C@H]2[C@@H]3CCC4=CC(=O)CC[C@]4(C)[C@H]3CC[C@]12C` [Progesterone], in data set [1], the “loading concentration in dimethyl isosorbide” value came out at 6.4 mg/cm^2 and the “loading concentration of saturated solution in DMEU” value is on record as 27.7 mg/cm^2. Also, the “loading concentration in dipropylene glycol” value in data set [1] (dipropylene glycol as penetration accelerator) came to 2.1 mg/cm^2. Besides, the water solubility result in data set [2] is “almost insoluble in water”.

(Values after patent publication US20230104692A1, “DMEU ENHANCER” (priority 2020, published 2023).)
